The values below come from ChEMBL document CHEMBL5543162, “Discovery of a Novel Orally Bioavailable FLT3-PROTAC Degrader for Efficient Treatment of Acute Myeloid Leukemia and Overcoming Resistance of FLT3 Inhibitors” (J Med Chem, 2024).

The subject of data set [1] is MV4-11. Kind of data set: Antiproliferative activity against human MV4-11 cells expressing FLT3-ITD mutant incubated for 48 hrs by CCK8 assay. In kind it is functional, cell-based. As to conditions: MV4-11, 48 h.
Data set [2] is described as follows: Antiproliferative activity against human THP-1 cells expressing wild-type FLT3 incubated for 48 hrs by CCK8 assay. It is filed as toxicity, cell-based.
A short description of data set [3]: Antiproliferative activity against human U-937 cells expressing wild-type FLT3 incubated for 48 hrs by CCK8 assay. It is filed as toxicity, cell-based.
Data set [4] is described as follows: Antiproliferative activity against human HL-60 cells expressing wild-type FLT3 incubated for 48 hrs by CCK8 assay. It is filed as toxicity, cell-based.
For data set [5], the system named is MV4-11. Kind of data set: Antitumor activity against human MV4-11 cells xenografted in nu/nu mouse at 1.6 mg/kg, po administered daily for 2 weeks relative to control. It is filed as functional. As to conditions: MV4-11, 336 h, read-out: TGI.
For data set [6], the system named is MOLM-13. In words: Antiproliferative activity against Sunitinib-resistant human MOLM-13 cells incubated for 48 hrs by CCK8 assay. As to conditions: MOLM-13, 48 h. It is filed as functional, cell-based.
For data set [7], the system named is MOLM-13. In words: Antiproliferative activity against Quizartinib-resistant human MOLM-13 cells incubated for 48 hrs by CCK8 assay. In kind it is functional, cell-based. As to conditions: MOLM-13, 48 h.
Data set [8] is described as follows: Stability in human liver microsomes assessed as half life. It is filed as ADME, Microsome.
Data set [9] can be described thus: Stability in dog liver microsomes assessed as half life. In kind it is ADME, Canis lupus familiaris, Microsome.
A short description of data set [10]: Stability in monkey liver microsomes assessed as half life. In kind it is ADME, Microsome. As to conditions: chlorocebus aethiops.
A short description of data set [11]: Stability in rat liver microsomes assessed as half life. It is filed as ADME, Microsome.
Data set [12] in a line: Stability in mouse liver microsomes assessed as half life. It is filed as ADME, Microsome.
A short description of data set [13]: Stability in human liver microsomes assessed as intrinsic clearance. It is filed as ADME, Microsome. As to conditions: read-out: CLH.
The nature of data set [14]: Stability in dog liver microsomes assessed as intrinsic clearance. In kind it is ADME, Canis lupus familiaris, Microsome. Particulars: read-out: CLH.
A short description of data set [15]: Stability in monkey liver microsomes assessed as intrinsic clearance. Particulars: chlorocebus aethiops, read-out: CLH. It is filed as ADME, Microsome.
The nature of data set [16]: Stability in rat liver microsomes assessed as intrinsic clearance. In kind it is ADME, Microsome. Particulars: read-out: CLH.
Data set [17] is described as follows: Stability in mouse liver microsomes assessed as intrinsic clearance. In kind it is ADME, Microsome. As to conditions: read-out: CLH.
The nature of data set [18]: Stability in human liver microsomes assessed as hepatic clearance. In kind it is ADME, Microsome.
Data set [19] in a line: Stability in dog liver microsomes assessed as hepatic clearance. It is filed as ADME, Canis lupus familiaris, Microsome.
A short description of data set [20]: Stability in monkey liver microsomes assessed as hepatic clearance. It is filed as ADME, Microsome. Particulars: chlorocebus aethiops.
Data set [21] in a line: Stability in rat liver microsomes assessed as hepatic clearance. In kind it is ADME, Microsome.
A short description of data set [22]: Stability in mouse liver microsomes assessed as hepatic clearance. It is filed as ADME, Microsome.

SMILES strings stand for the structures.

As to `Cc1c(NC(=O)CCN2CCCC2)c[nH]c1/C=C1\C(=O)Nc2ccc(F)cc21`, the results for the 50% inhibitory concentration (IC50) with MV4-11 [1], with MOLM-13 [6] and in the data set with MOLM-13 [7] were 24 nM, 811 nM and 1520 nM, respectively. Further, the IC50 at 48 h came out at 1500 nM in data set [2], 2780 nM in data set [3] and 6450 nM in data set [4]. Besides, the inhibition in vivo at 1.6 mg/kg in the data set on MV4-11 [5] is 39.8%. Also, the half-life in [8] was determined as 3.21 h; in data set [9] it was 1.5 h; in data set [10], 0.983 h; in data set [11], 1.01 h; in data set [12], 0.758 h. Also, the CLint scaled in data set [13] worked out at 8.32 mL/min/kg; in [14] it was 22.1 mL/min/kg; in data set [15], 31.7 mL/min/kg; in data set [16] it was 41 mL/min/kg; in data set [17] it was 120 mL/min/kg. The CLhep predicted in data set [18] was 5.93 mL/min/kg; in data set [19], 12.9 mL/min/kg; in data set [20] it was 18.4 mL/min/kg; in [21], 27.7 mL/min/kg; in data set [22], 51.4 mL/min/kg.
